Columns and labels:
[1] = target: T1, 5-hydroxytryptamine receptor 6 (Homo sapiens, UniProt P50406); assay: Displacement of [3H]LSD from human 5HT6 receptor expressed in HeLa cells; format: cell-based
[2] = target: T1, 5-hydroxytryptamine receptor 6; assay: Antagonist activity at human 5HT6 receptor expressed in HeLa cells assessed as cAMP production; format: functional, cell-based
[3] = target: T1, 5-hydroxytryptamine receptor 6; assay: Agonist activity at human 5HT6 receptor expressed in HeLa cells assessed as cAMP production; format: functional, cell-based

T1 sequence (P50406 whole entry): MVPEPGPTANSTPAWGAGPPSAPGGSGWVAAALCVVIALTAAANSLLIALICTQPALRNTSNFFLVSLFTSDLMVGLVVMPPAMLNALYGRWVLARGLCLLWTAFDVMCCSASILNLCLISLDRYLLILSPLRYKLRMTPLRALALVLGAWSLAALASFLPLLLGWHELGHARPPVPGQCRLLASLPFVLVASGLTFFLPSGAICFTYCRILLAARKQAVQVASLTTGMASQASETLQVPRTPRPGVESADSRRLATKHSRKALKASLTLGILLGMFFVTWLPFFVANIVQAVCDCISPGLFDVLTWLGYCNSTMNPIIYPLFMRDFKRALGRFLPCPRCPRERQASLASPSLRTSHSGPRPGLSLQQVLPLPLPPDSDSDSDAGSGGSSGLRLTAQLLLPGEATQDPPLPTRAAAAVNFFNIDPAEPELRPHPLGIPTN

| SMILES | Ki [1] | IC50 [2] | Imax [2] | EC50 [3] | Emax [3] |
| --- | --- | --- | --- | --- | --- |
| COc1ccc(S(=O)(=O)n2cc(CCN)c3ccccc32)cc1OC | 7 nM | 17.5 nM | 80.5% |  |  |
| NCCc1cn(S(=O)(=O)c2ccc(F)cc2)c2ccccc12 | 21 nM |  |  |  |  |
| NCCc1cn(S(=O)(=O)c2ccc(Br)s2)c2ccccc12 | 7 nM |  |  | 54 nM | 72% |
| CN1C=C(S(=O)(=O)n2cc(CCN)c3ccccc32)SC1N (stereo unspecified) | 10 nM | 9.6 nM | 83% |  |  |
| COc1ccc(S(=O)(=O)n2cc(CCN)c3ccccc32)cc1 | 47 nM |  |  |  |  |
| NCCc1cn(S(=O)(=O)c2ccc(Cl)s2)c2ccccc12 | 6 nM |  |  | 181 nM | 100% |
| Cc1ccc(S(=O)(=O)n2cc(CCN)c3ccccc32)cc1 | 8 nM |  |  | 191 nM | 87.5% |
| NCCc1cn(S(=O)(=O)c2ccccc2Br)c2ccccc12 | 11 nM |  |  | 148 nM | 97.5% |
| NCCc1cn(S(=O)(=O)c2ccccc2I)c2ccccc12 | 16 nM |  |  |  |  |
